From PubChem BioAssay (NCI)
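Interpolation was linear, between the two tested concentrations surrounding the appropriate level; five concentrations were tested over 48 hours in 96-well plates. TGI denotes the concentration required for complete inhibition of growth.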

What was measured:
Assay in all cases: growth of human tumour cells (NCI), 48 h
[1] = system: HL-60(TB) leukemia
[2] = system: A498 renal
[3] = system: SF-295 CNS
[4] = system: SF-539 CNS
[5] = system: CCRF-CEM leukemia
[6] = system: KM20L2 colon
[7] = system: OVCAR-3 ovarian
[8] = system: COLO 205 colon
[9] = system: SF-268 CNS
[10] = system: SK-MEL-5 melanoma
[11] = system: M14 melanoma
[12] = system: OVCAR-5 ovarian
[13] = system: SNB-19 CNS
[14] = system: MOLT-4 leukemia
[15] = system: HOP-62 NSCLC
[16] = system: OVCAR-4 ovarian
[17] = system: ACHN renal
[18] = system: OVCAR-8 ovarian
[19] = system: SR leukemia
[20] = system: A549 NSCLC
[21] = system: NCI-H23 lung
[22] = system: SN12C renal
[23] = system: SNB-75 CNS
[24] = system: K-562 leukemia
[25] = system: CAKI-1 renal
[26] = system: EKVX NSCLC
[27] = system: DLD-1 colon
[28] = system: TK-10 renal
[29] = system: M19-MEL melanoma
[30] = system: RPMI-8226 leukemia
[31] = system: MALME-3M melanoma
[32] = system: HOP-18 NSCLC
[33] = system: IGROV1 ovarian
[34] = system: KM12 colon
[35] = system: 786-0 renal
[36] = system: HCT-116 colon
[37] = system: DMS 114 small cell lung
[38] = system: NCI-H226 lung
[39] = system: LXFL 529 NSCLC
[40] = system: HCT-15 colon
[41] = system: UACC-62 melanoma
[42] = system: SW-620 colon
[43] = system: UO-31 renal
[44] = system: HT29 colon
[45] = system: NCI-H460 lung
[46] = system: HCC-2998 colon
[47] = system: SK-MEL-2 melanoma
[48] = system: SNB-78 CNS
[49] = system: RXF-631 renal
[50] = system: LOX IMVI melanoma
[51] = system: SK-OV-3 ovarian
[52] = system: SK-MEL-28 melanoma
[53] = system: DMS 273 small cell lung
[54] = system: UACC-257 melanoma
[55] = system: XF 498 CNS
[56] = system: NCI-H522 lung
[57] = system: RXF 393 renal
[58] = system: HOP-92 NSCLC
[59] = system: U251 CNS

Measured: TGI

C(/C=C/N1CCCC1)=C\c1nc(N2CCCC2)c2ccccc2n1
50.1 µM: [5]
33.2 µM: [37]
28 µM: [39]
32.5 µM: [40]
33.3 µM: [10]
33 µM: [31]
36.3 µM: [13] | [51]
35.6 µM: [24]
29.7 µM: [7]
29.8 µM: [42]
33.8 µM: [36]
39.4 µM: [44]
41.7 µM: [9]
29 µM: [22]
35.4 µM: [3]
> 100 µM: [2] | [18] | [20] | [28] | [34] | [54]
27.8 µM: [16]
33.6 µM: [45]
51.7 µM: [6]
44.1 µM: [41]
32.8 µM: [4]
29.2 µM: [43]
39.1 µM: [47]
33.9 µM: [19]
30.4 µM: [35]
30.8 µM: [17]
32.2 µM: [29]
32 µM: [50]
61.3 µM: [1]
28.9 µM: [12]
37.9 µM: [26]
38.7 µM: [52]
32.9 µM: [21]
43.6 µM: [48]
33.5 µM: [11]
35.3 µM: [25]
52.3 µM: [14]
34.2 µM: [53]
35.2 µM: [15]
31.3 µM: [46]
28.5 µM: [8]
39.7 µM: [38]
30.3 µM: [32]
41.3 µM: [49]
42.3 µM: [30]
39.6 µM: [33]
37.1 µM: [27]
31.6 µM: [23]

Nc1nc(Cl)cc(NCCCCCCNc2cc(Cl)nc(N)n2)n1
22.5 µM: [17]
97.8 µM: [41]
87 µM: [55]
not listed: [2] | [9] | [31] | [37] | [48] | [52]
> 100 µM: all other assays above

COc1cc2c3c(c1OC)/C(=N/OS(=O)(=O)c1ccc(C)cc1)CC3N(S(=O)(=O)c1ccc(C)cc1)CC2 (configuration not stated)
not listed: [14] | [19] | [40] | [47]
> 100 µM: all other assays above
